In patent US11655216B2 (priority 2016, dated 2023):
Where two headings read alike, the source gives them in different places.

Key:
[1] = biological target: T1, glutathione-S-transferase (GST) tagged LXRbeta LBD (ligand binding domain) (Homo sapiens, UniProt P55055); assay: LanthaScreen TR-FRET Liver X Receptor Coactivator Assay, LXR beta; type: biochemical; details: for EC50: LXR beta IP, potency (Inflection Point), compound-induced co-activator recruitment, TR-FRET; for Emax: read-out: LXR beta actiivty at max dose, efficacy (% Emax) in relation to reference dual agonist T0901317; for LXR beta actiivty at max dose: efficacy (% Emax) in relation to reference dual agonist T0901317
T1 construct: purchased Invitrogen pv4658
T1 sequence (P55055 222-460 limits assumed): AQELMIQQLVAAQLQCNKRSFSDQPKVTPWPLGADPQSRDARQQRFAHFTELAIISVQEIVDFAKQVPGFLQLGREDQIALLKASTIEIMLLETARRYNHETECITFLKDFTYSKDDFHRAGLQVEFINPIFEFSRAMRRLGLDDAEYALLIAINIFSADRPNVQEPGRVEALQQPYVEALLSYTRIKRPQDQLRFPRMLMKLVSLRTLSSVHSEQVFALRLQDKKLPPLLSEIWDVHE
Summary of the method: (§1)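 Compound + LBD (alpha or beta); add fluorescein coactivator peptide/Tb anti-GST Ab mix; incubate RT; read TR-FRET.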

[2] = biological target: T2, glutathione-S-transferase (GST) tagged LXRalpha LBD (ligand binding domain) (Homo sapiens, UniProt Q13133); assay: biochemical
T2 construct: purchased Invitrogen pv4655
T2 sequence (Q13133 209-447 limits assumed): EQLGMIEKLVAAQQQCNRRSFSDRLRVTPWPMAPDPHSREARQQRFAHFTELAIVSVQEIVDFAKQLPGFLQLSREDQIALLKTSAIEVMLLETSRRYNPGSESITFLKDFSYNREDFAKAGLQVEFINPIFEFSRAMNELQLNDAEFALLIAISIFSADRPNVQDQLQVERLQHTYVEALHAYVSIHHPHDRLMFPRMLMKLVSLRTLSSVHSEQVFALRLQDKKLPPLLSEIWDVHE
Summary of the method: as §1

[3] = efficacy (% Emax) in relation to reference dual agonist T0901317, read-out: LXR alpha actiivty at max dose
[4] = potency (Inflection Point), compound-induced co-activator recruitment, TR-FRET, read-out: LXR alpha IP
[5] = LXR alpha IP, potency (Inflection Point), compound-induced co-activator recruitment, TR-FRET
[6] = read-out: LXR alpha actiivty at max dose, efficacy (% Emax) in relation to reference dual agonist T0901317
[7] = efficacy (% Emax) in relation to reference dual agonist T0901317
[8] = potency (Inflection Point), compound-induced co-activator recruitment, TR-FRET

`C[C@H](CCCC1CCN(C(=O)[C@](O)(c2ccccc2)C(F)(F)F)CC1)Oc1ccc(C(=O)N(C)C)c(Cl)c1` (single isomer, unassigned) [Example 25-1, 2-chloro-N,N-dimethyl-4-((R or S)-5-(1-((R or S)-3,3,3-trifluoro-2-hydroxy-2-phenylpropanoyl)piperidin-4-yl)pentan-2-yloxy)benzamide] showed an EC50 [1] of 101 nM, an Emax [1] of 91% and an Emax [2, 3] of 29%. For the same compound, the EC50 [2, 4] was 1160 nM.

Compound `COc1cccc([C@](O)(C(=O)N2CCC(CCCC(C)Oc3ccc(C(=O)N(C)C)c(Cl)c3)CC2)C(F)(F)F)c1` (single isomer, unassigned) [Example 25-2, 2-chloro-N,N-dimethyl-4-((R or S)-5-(1-((S or R)-3,3,3-trifluoro-2-hydroxy-2-(3-methoxyphenyl)propanoyl)piperidin-4-yl)pentan-2-yloxy)benzamide] has an EC50 [1] of 98 nM, an Emax [1] of 84% and an EC50 [2, 5] of 1360 nM. It also gave an Emax [2, 6] of 12%.

`COc1cccc(C(O)(C(=O)N2CCC(C(C)CCCOc3ccc(C(=O)N(C)C)c(Cl)c3)CC2)C(F)(F)F)c1` (single isomer, unassigned) [Example 26-1, 2-chloro-N,N-dimethyl-4-((R or S)-4-(1-((R or S)-3,3,3-trifluoro-2-hydroxy-2-(3-methoxyphenyl)propanoyl)piperidin-4-yl)pentyloxy)benzamide] was tested, and the EC50 [1] was 8 nM, the Emax [1] was 65% and the Emax [2, 3] was 12%. It also gave an EC50 [2, 4] of 236 nM.

With `CC(CCCOc1ccc(C(=O)N(C)C)c(Cl)c1)C1CCN(C(=O)C(O)(c2ccccc2)C(F)(F)F)CC1` (single isomer, unassigned) [Example 26-2, 2-chloro-N,N-dimethyl-4-((R or S)-4-(1-((R or S)-3,3,3-trifluoro-2-hydroxy-2-phenylpropanoyl)piperidin-4-yl)pentyloxy)benzamide] the EC50 [1] was 6 nM, the “LXR beta actiivty at max dose” value [1] was 71% and the EC50 [2, 5] was 103 nM. The Emax [2, 6] was 41%.

With `CC(CCCOc1ccc(C(=O)N(C)C)c(Cl)c1)C1CCN(C(=O)C(O)(c2ccccc2)C(F)(F)F)CC1` (single isomer, unassigned) [Example 26-3, 2-chloro-N,N-dimethyl-4-((S or R)-4-(1-((R or S)-3,3,3-trifluoro-2-hydroxy-2-phenylpropanoyl)piperidin-4-yl)pentyloxy)benzamide] the EC50 [1] was 6 nM, the “LXR beta actiivty at max dose” value [1] was 77% and the EC50 [2, 5] was 125 nM. For the same compound, the “LXR alpha actiivty at max dose” value [2, 7] was 48%.

In the case of `CC(CCCOc1ccc(C(=O)N(C)C)c(Cl)c1)C1CCN(C(=O)C(O)(c2ccccc2)C(F)(F)F)CC1` (single isomer, unassigned) [Example 26-4, 2-chloro-N,N-dimethyl-4-((S or R)-4-(1-((S or R)-3,3,3-trifluoro-2-hydroxy-2-phenylpropanoyl)piperidin-4-yl)pentyloxy)benzamide], the EC50 [1] is reported as 41 nM, the “LXR beta actiivty at max dose” value [1] is reported as 114% and the EC50 [2, 5] is reported as 669 nM. The “LXR alpha actiivty at max dose” value [2, 7] was 35%.

`COc1cccc([C@@](O)(C(=O)N2CCC(C[C@@H](C)CCOc3ccc(C(=O)N(C)C)c(Cl)c3)CC2)C(F)(F)F)c1` (single isomer, unassigned) [Example 27-1, 2-chloro-N,N-dimethyl-4-((R or S)-3-methyl-4-(1-((R or S)-3,3,3-trifluoro-2-hydroxy-2-(3-methoxyphenyl)propanoyl)piperidin-4-yl)butoxy)benzamide] showed an EC50 [1] of 5 nM, an Emax [1] of 70% and an Emax [2, 3] of 23%. It also gave an EC50 [2, 4] of 74 nM.

For `COc1cccc([C@@](O)(C(=O)N2CCC(CC(C)CC(F)(F)Oc3ccc(C(=O)N(C)C)c(Cl)c3)CC2)C(F)(F)F)c1` (single isomer, unassigned) [Example 28-1, 2-chloro-4-((R or S)-1,1-difluoro-3-methyl-4-(1-((R or S)-3,3,3-trifluoro-2-hydroxy-2-(3-methoxyphenyl)propanoyl)piperidin-4-yl)butoxy)-N,N-dimethylbenzamide], the EC50 [1] was 65 nM, the Emax [1] was 62% and the “LXR alpha IP” value [2, 8] was “No IP”. The Emax [2, 6] was 0%.

`CN(C)C(=O)c1ccc(OCC(C)(C)CCC2CCN(C(=O)C(O)(c3ccccc3)C(F)(F)F)CC2)cc1Cl` (single isomer, unassigned) [Example 29-1, (R or S)-2-chloro-4-(2,2-dimethyl-4-(1-(3,3,3-trifluoro-2-hydroxy-2-phenylpropanoyl)piperidin-4-yl)butoxy)-N,N-dimethylbenzamide] was tested, and the EC50 [1] was 173 nM, the Emax [1] was 48% and the EC50 [2, 5] was 911 nM. For the same compound, the Emax [2, 6] was 27%.

With `COc1cccc(C(O)(C(=O)N2CCC(CC(C)CC(C)Oc3ccc(C(=O)N(C)C)c(Cl)c3)CC2)C(F)(F)F)c1` (single isomer, unassigned) [Example 30-1, 2-chloro-N,N-dimethyl-4-(4-methyl-5-(1-((R or S)-3,3,3-trifluoro-2-hydroxy-2-(3-methoxyphenyl)propanoyl)piperidin-4-yl)pentan-2-yloxy)benzamide] the EC50 [1] was 99 nM, the Emax [1] was 84% and the “LXR alpha IP” value [2] was “No IP”. The Emax ([2]; read-out: LXR alpha actiivty at max dose) was 8%.

Work on `CC(COc1ccc(C(=O)N(C)C)c(Cl)c1)CC(C)C1CCN(C(=O)C(O)(c2ccccc2)C(F)(F)F)CC1` (single isomer, unassigned) [Example 31-1, 2-chloro-N,N-dimethyl-4-(2-methyl-4-(1-((R or S)-3,3,3-trifluoro-2-hydroxy-2-phenylpropanoyl)piperidin-4-yl)pentyloxy)benzamide] yielded an EC50 [1] of 25 nM, an Emax [1] of 56% and an EC50 [2, 5] of 284 nM. It also gave an Emax [2, 6] of 27%.

For `COc1cccc(C(O)(C(=O)N2CCC(C(C)CC(C)COc3ccc(C(=O)N(C)C)c(Cl)c3)CC2)C(F)(F)F)c1` (single isomer, unassigned) [Example 31-2, 2-chloro-N,N-dimethyl-4-(2-methyl-4-(1-((R or S)-3,3,3-trifluoro-2-hydroxy-2-(3-methoxyphenyl)propanoyl)piperidin-4-yl)pentyloxy)benzamide], the EC50 [1] was 19 nM, the Emax [1] was 38% and the “LXR alpha IP” value [2, 8] was “No IP”. For the same compound, the Emax [2, 6] was 3%.

With `CC(C)C(O)(C(=O)N1CCC(C2CC2COc2ccc(C(=O)N(C)C)c(Cl)c2)CC1)C(F)(F)F` (single isomer, unassigned) [Example 32-1, 2-chloro-4-(((1R,2S or 1S,2R)-2-(1-((S or R)-2-hydroxy-3-methyl-2-(trifluoromethyl)butanoyl)piperidin-4-yl)cyclopropyl)methoxy)-N,N-dimethylbenzamide] the EC50 [1] was 319 nM, the Emax [1] was 82% and the “LXR alpha actiivty at max dose” value [2, 7] was 0%. The “LXR alpha IP” value [2, 8] was “No IP”.

In the case of `CC(C)C(O)(C(=O)N1CCC(C2CC2COc2ccc(C(=O)N(C)C)c(Cl)c2)CC1)C(F)(F)F` (single isomer, unassigned) [Example 32-2, 2-chloro-4-(((1R,2S or 1S,2R)-2-(1-((R or S)-2-hydroxy-3-methyl-2-(trifluoromethyl)butanoyl)piperidin-4-yl)cyclopropyl)methoxy)-N,N-dimethylbenzamide], the EC50 [1] is reported as 206 nM, the “LXR beta actiivty at max dose” value [1] is reported as 73% and the “LXR alpha actiivty at max dose” value [2, 7] is reported as 8%. For the same compound, the “LXR alpha IP” value [2, 8] was “No IP”.

Work on `CN(C)C(=O)c1ccc(OC[C@@H]2C[C@H]2C2CCN(C(=O)[C@](O)(c3ccccc3)C(F)(F)C(F)(F)F)CC2)cc1Cl` (single isomer, unassigned) [Example 32-3, 2-chloro-N,N-dimethyl-4-(((1R,2S or 1S,2R)-2-(1-((R or S)-3,3,4,4,4-pentafluoro-2-hydroxy-2-phenylbutanoyl)piperidin-4-yl)cyclopropyl)methoxy) benzamide] yielded an EC50 [1] of 105 nM, an Emax [1] of 125% and an EC50 [2, 5] of 1380 nM. For the same compound, the Emax [2, 6] was 17%.

In the case of `CN(C)C(=O)c1ccc(OC[C@@H]2C[C@H]2C2CCN(C(=O)C(C)(C)c3ccccc3)CC2)cc1Cl` (single isomer, unassigned) [Example 32-4, 2-chloro-N,N-dimethyl-4-(((1R,2S or 1S,2R)-2-(1-(2-methyl-2-phenylpropanoyl)piperidin-4-yl)cyclopropyl)methoxy) benzamide], the EC50 [1] is reported as 163 nM, the Emax [1] is reported as 60% and the “LXR alpha IP” value [2, 8] is reported as “No IP”. The Emax [2, 6] was 0%.

`CNC(=O)c1ccc(OC[C@H]2C[C@@H]2C2CCN(C(=O)[C@](O)(c3ccccc3)C(F)(F)C(F)(F)F)CC2)cc1Cl` (single isomer, unassigned) [Example 32-5, 2-chloro-N-methyl-4-(((1S,2R or 1R,2S)-2-(1-((R or S)-3,3,4,4,4-pentafluoro-2-hydroxy-2-phenylbutanoyl)piperidin-4-yl)cyclopropyl)methoxy) benzamide] was tested, and the EC50 [1] was 136 nM, the Emax [1] was 149% and the EC50 [2, 5] was 1540 nM. The Emax [2, 6] was 33%.
